Results published in patent US20240279278A1, “NMU RECEPTOR 2 AGONISTS” (Boehringer Ingelheim International GmbH, priority 2023, published 2024).
Residues, ends and D or L forms follow the SMILES beside them.

Columns and labels:
Type in all cases: cell-based
human NMUR2 receptor [1] = molecular target: T1, human NMUR2 receptor (Homo sapiens, UniProt Q9GZQ4); test: IP1 Gq HTRF assay, activation of human NMUR2 in buffer; parameters: expressed in transfected cells; host or cells: CHO-K1; details: CHO-K1 cells expressing human NMUR2, stimulation buffer with 0.1% BSA; read-out: EC50 (hNMUR2) buffer
From the text: (§1) Example 3: IP1 Gq HTRF Assay Activation of Human NMUR2 or Human NMUR1 in Buffer Application of the Homogenous Time Resolved Fluorescence (HTRF) technology optimized for Gq coupled receptors has been described in detail in the Cisbio IP-One Gq kit manual. In brief, a FRET signal (FRET: fluorescence resonance energy transfer) is generated between the donor label of an IP-One antibody (anti-IP1-Tb) and the acceptor label of a tagged IP-One (IP1-d2). Agonism of a Gq coupled receptor increases intracellular IP-One, which competes with labeled IP-One and leads to a reduction of the FRET signal. Frozen stocks of CHO-K1 cells stably expressing the human NMUR1 or NMUR2 receptor were thawed and 5000 cells were seeded in culture medium (HAM'S F12, 10% FCS) into each well of a 384-well assay plate. After seeding, cells were incubated for 24 h in a humidified incubator at 37° C. and 5% CO2. Next, cells were washed once with 50 μL of wash buffer (20 mM Hepes, 1×HBSS, pH 7.4), followed by addition of either 10 μL of stimulation buffer (20 mM Hepes, 1×HBSS, 50 mM LiCl, 0.1% BSA, pH 7.4). Peptide agonists to be tested were dissolved in 100% DMSO and pre-diluted in stimulation buffer at a suitable concentration range for an 8 pt dose-response curve. 5 μL of peptide pre-dilution were then added to each well, followed by another 5 μL of stimulation buffer to give a final concentration of 1% DMSO. Samples were subsequently incubated for 1 hour in a humidified incubator at 37° C. After addition of 5 μL each of IP1-d2 and anti-IP1-Tb, samples were incubated for another 1 hour at room temperature and FRET signals (ratio 665 nm/620 nm) were measured. EC50 values were calculated by nonlinear regression using a 4-parameter sigmoidal curve fit.

human NMUR1 receptor = molecular target: T2, human NMUR1 receptor (Homo sapiens, UniProt Q9HB89); test: IP1 Gq HTRF assay, activation of human NMUR1 in buffer; details: CHO-K1 cells expressing human NMUR1, stimulation buffer with 0.1% BSA; read-out: EC50 (hNMUR1) buffer
T2 construct: expressed in transfected cells; host or cells: CHO-K1
T2 sequence (Q9HB89 1-426): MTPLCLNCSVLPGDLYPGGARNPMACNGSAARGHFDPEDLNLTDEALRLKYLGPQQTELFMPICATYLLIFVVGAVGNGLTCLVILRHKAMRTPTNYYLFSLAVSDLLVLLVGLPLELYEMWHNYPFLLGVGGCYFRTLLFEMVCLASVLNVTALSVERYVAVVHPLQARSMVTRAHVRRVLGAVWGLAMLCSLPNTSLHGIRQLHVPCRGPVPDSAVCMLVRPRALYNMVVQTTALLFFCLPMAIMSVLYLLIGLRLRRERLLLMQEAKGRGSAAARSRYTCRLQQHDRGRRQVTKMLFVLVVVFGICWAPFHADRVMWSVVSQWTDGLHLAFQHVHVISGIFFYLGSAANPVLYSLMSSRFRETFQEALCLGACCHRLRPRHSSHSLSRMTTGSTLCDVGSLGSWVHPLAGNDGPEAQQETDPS
From the text: as §1

human NMUR2 receptor [2] = molecular target: T1, human NMUR2 receptor; test: IP1 Gq HTRF assay, activation of human NMUR2 in human plasma; parameters: expressed in transfected cells; host or cells: CHO-K1; details: CHO-K1 cells expressing human NMUR2, 100% human plasma; read-out: EC50 (hNMUR2) human plasma
From the text: Example 4: IP1 Gq HTRF Assay Activation of Human NMUR2 in Human Plasma Application of the Homogenous Time Resolved Fluorescence (HTRF) technology optimized for Gq coupled receptors has been described in detail in the Cisbio IP-One Gq kit manual. In brief, a FRET signal is generated between the donor label of an IP-One antibody (anti-IP1-Tb) and the acceptor label of a tagged IP-One (IP1-d2). Agonism of a Gq coupled receptor increases intracellular IP-One, which competes with labeled IP-One and leads to a reduction of the FRET signal. Frozen stocks of CHO-K1 cells stably expressing the human NMUR1 receptor or human NMUR2 receptor were thawed and 5000 cells were seeded in culture medium (HAM'S F12, 10% FCS) into each well of a 384-well assay plate. After seeding, cells were incubated for 24 h in a humidified incubator at 37° C. and 5% CO2. Next, cells were washed once with […] of wash buffer (20 mM Hepes, 1×HBSS, pH 7.4), followed by addition of […] (100% human plasma, 50 mM LiCl). Peptide agonists to be tested were dissolved in 100% DMSO and pre-diluted in plasma at a suitable concentration range for an 8 pt dose-response curve. 5 μL of peptide pre-dilution were then added to each well, followed by another 5 μL of plasma to give a final concentration of 1% DMSO. Samples were subsequently incubated for 1 hour in a humidified incubator at 37° C. The plasma solution was replaced by 20 μL of stimulation buffer. After addition of 5 μL each of IP1-d2 and anti-IP1-Tb, samples were incubated for another 1 hour at room temperature and FRET signals (ratio 665 nm/620 nm) were measured. EC50 values were calculated by nonlinear regression using a 4-parameter sigmoidal curve fit.

T1 sequence (Q9GZQ4 whole entry): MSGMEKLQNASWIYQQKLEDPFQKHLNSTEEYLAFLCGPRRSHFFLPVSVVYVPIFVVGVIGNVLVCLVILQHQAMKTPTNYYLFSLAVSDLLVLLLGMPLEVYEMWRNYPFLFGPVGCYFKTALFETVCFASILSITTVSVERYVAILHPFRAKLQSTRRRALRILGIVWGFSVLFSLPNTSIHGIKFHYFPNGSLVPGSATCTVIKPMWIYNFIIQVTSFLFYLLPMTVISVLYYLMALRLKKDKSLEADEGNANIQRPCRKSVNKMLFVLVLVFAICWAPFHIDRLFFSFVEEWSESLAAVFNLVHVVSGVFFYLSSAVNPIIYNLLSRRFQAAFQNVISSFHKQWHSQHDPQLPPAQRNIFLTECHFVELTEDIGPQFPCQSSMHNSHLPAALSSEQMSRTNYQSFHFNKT

SMILES	EC50 (human NMUR2 receptor [1])	EC50 (human NMUR1 receptor)	EC50 (human NMUR2 receptor [2])
CCCC[C@H](NC(=O)[C@H](CC(C)C)N(C)C(=O)[C@H](Cc1ccccc1)NC(=O)[C@H](Cc1ccc(O)cc1)NC(=O)CN1CCN(CCNC(=O)CN(C)C(=O)CN(C)C(=O)CN(C)C(=O)CN(C)C(=O)CN(C)C(=O)CN(C)C(=O)CN(C)C(=O)CN(C)C(=O)CN(C)C(=O)CN(C)C(=O)CN(C)C(=O)CN(C)C(=O)CC[C@H](NC(=O)CC[C@H](NC(=O)CC[C@H](NC(=O)CC[C@H](NC(=O)CCCCCCCCCCCCCCCCC(=O)O)C(=O)O)C(=O)O)C(=O)O)C(=O)O)CC1)C(=O)N[C@@H](CCCNC(=N)N)C(=O)N1CCC[C@H]1C(=O)N[C@@H](CCCNC(=N)N)C(=O)NCC(N)=O [Compound 2, C18DA-gGlu4-Sar12-AEPipAc-Tyr-Phe-NMeLeu-Nle-Arg-Pro-Arg-Gly-NH2]	1.1 nM	220 nM	3.7 nM
CCCC[C@H](NC(=O)[C@H](CC(C)C)N(C)C(=O)[C@H](Cc1ccccc1)NC(=O)[C@H](Cc1ccc(O)cc1)NC(=O)CN1CCN(CCNC(=O)CN(C)C(=O)CN(C)C(=O)CN(C)C(=O)CN(C)C(=O)CN(C)C(=O)CN(C)C(=O)CN(C)C(=O)CN(C)C(=O)CN(C)C(=O)CN(C)C(=O)CN(C)C(=O)CN(C)C(=O)CN(C)C(=O)CN(C)C(=O)CN(C)C(=O)CC[C@H](NC(=O)CC[C@H](NC(=O)CC[C@H](NC(=O)CC[C@H](NC(=O)CCCCCCCCCCCCCCCCCCC(=O)O)C(=O)O)C(=O)O)C(=O)O)C(=O)O)CC1)C(=O)N[C@@H](CCCN)C(=O)N1CCC[C@H]1C(=O)N[C@@H](CCCNC(=N)N)C(=O)NCC(N)=O [Compound 3, C20DA-gGlu4-Sar15-AEPipAc-Tyr-Phe-NMeLeu-Nle-Orn-Pro-Arg-Gly-NH2] (HELM PEPTIDE1{[O=C(O)CCCCCCCCCCCCCCCCCCC(=O)[*:2]].[gGlu].[gGlu].[gGlu].[gGlu].[Sar].[Sar].[Sar].[Sar].[Sar].[Sar].[Sar].[Sar].[Sar].[Sar].[Sar].[Sar].[Sar].[Sar].[Sar].[O=C(CN1CCN(CCN[*:1])CC1)[*:2]].Y.F.[meL].[Nle].[Orn].P.R.G.[am]}$$$$V2.0)	1.9 nM	440 nM	5.6 nM
CCCC[C@H](NC(=O)[C@H](CC(C)C)N(C)C(=O)[C@H](Cc1ccccc1)NC(=O)[C@H](Cc1ccc(O)cc1)NC(=O)CN1CCN(CCNC(=O)CN(C)C(=O)CN(C)C(=O)CN(C)C(=O)CN(C)C(=O)CN(C)C(=O)CN(C)C(=O)CN(C)C(=O)CN(C)C(=O)CN(C)C(=O)CN(C)C(=O)CN(C)C(=O)CN(C)C(=O)CN(C)C(=O)CN(C)C(=O)CN(C)C(=O)CC[C@H](NC(=O)CC[C@H](NC(=O)CC[C@H](NC(=O)CC[C@H](NC(=O)CCCCCCCCCCCCCCCCCCC(=O)O)C(=O)O)C(=O)O)C(=O)O)C(=O)O)CC1)C(=O)N[C@@H](CCN)C(=O)N1CCC[C@H]1C(=O)N[C@@H](CCCNC(=N)N)C(=O)NCC(N)=O [Compound 4, C20DA-gGlu4-Sar15-AEPipAc-Tyr-Phe-NMeLeu-Nle-Dbu-Pro-Arg-Gly-NH2] (HELM PEPTIDE1{[O=C(O)CCCCCCCCCCCCCCCCCCC(=O)[*:2]].[gGlu].[gGlu].[gGlu].[gGlu].[Sar].[Sar].[Sar].[Sar].[Sar].[Sar].[Sar].[Sar].[Sar].[Sar].[Sar].[Sar].[Sar].[Sar].[Sar].[O=C(CN1CCN(CCN[*:1])CC1)[*:2]].Y.F.[meL].[Nle].[Dab].P.R.G.[am]}$$$$V2.0)	2 nM	770 nM	5.8 nM
CCCC[C@H](NC(=O)[C@H](CC(C)C)N(C)C(=O)[C@H](Cc1ccccc1)NC(=O)[C@H](Cc1ccc(O)cc1)NC(=O)CN1CCN(CCNC(=O)CN(C)C(=O)CN(C)C(=O)CN(C)C(=O)CN(C)C(=O)CN(C)C(=O)CN(C)C(=O)CN(C)C(=O)CN(C)C(=O)CN(C)C(=O)CN(C)C(=O)CN(C)C(=O)CN(C)C(=O)CC[C@H](NC(=O)CC[C@H](NC(=O)CC[C@H](NC(=O)CC[C@H](NC(=O)CCCCCCCCCCCCCCCCCCC(=O)O)C(=O)O)C(=O)O)C(=O)O)C(=O)O)CC1)C(=O)N[C@@H](CCCN)C(=O)N(C)[C@@H](C)C(=O)N[C@@H](CCCNC(=N)N)C(=O)NCC(N)=O [Compound 13, C20DA-gGlu4-Sar12-AEPipAc-Tyr-Phe-NMeLeu-Nle-Orn-NMeAla-Arg-Gly-NH2]	3.5 nM	1200 nM	10.2 nM
CCCC[C@H](NC(=O)[C@H](CC(C)C)N(C)C(=O)[C@H](Cc1ccccc1)NC(=O)[C@H](Cc1ccc(O)cc1)NC(=O)CN1CCN(C(=O)CN(C)C(=O)CN(C)C(=O)CN(C)C(=O)CN(C)C(=O)CN(C)C(=O)CN(C)C(=O)CN(C)C(=O)CN(C)C(=O)CN(C)C(=O)CN(C)C(=O)CN(C)C(=O)CN(C)C(=O)CC[C@H](NC(=O)CC[C@H](NC(=O)CC[C@H](NC(=O)CCCCCCCCCCCCCCCCCCC(=O)O)C(=O)O)C(=O)O)C(=O)O)CC1)C(=O)N[C@@H](CCCNC(=N)N)C(=O)N1CCC[C@H]1C(=O)N[C@@H](CCCNC(=N)N)C(=O)NCC(N)=O [Compound 78, C20DA-gGlu3-Sar12-PipAc-Tyr-Phe-NMeLeu-Nle-Arg-Pro-Arg-Gly-NH2]	1.2 nM		5.3 nM
CCCC[C@H](NC(=O)[C@H](CC(C)C)N(C)C(=O)[C@H](Cc1ccccc1)NC(=O)[C@H](Cc1ccc(O)cc1)NC(=O)CN1CCN(C(=O)CN(C)C(=O)CN(C)C(=O)CN(C)C(=O)CN(C)C(=O)CN(C)C(=O)CN(C)C(=O)CN(C)C(=O)CN(C)C(=O)CN(C)C(=O)CN(C)C(=O)CN(C)C(=O)CN(C)C(=O)CN(C)C(=O)CN(C)C(=O)CN(C)C(=O)CC[C@H](NC(=O)CC[C@H](NC(=O)CC[C@H](NC(=O)CCCCCCCCCCCCCCCCCCC(=O)O)C(=O)O)C(=O)O)C(=O)O)CC1)C(=O)N[C@@H](CCCN)C(=O)N1CCC[C@H]1C(=O)N[C@@H](CCCNC(=N)N)C(=O)NCC(N)=O [Compound 80, C20DA-gGlu3-Sar15-PipAc-Tyr-Phe-NMeLeu-Nle-Orn-Pro-Arg-Gly-NH2] (HELM PEPTIDE1{[O=C(O)CCCCCCCCCCCCCCCCCCC(=O)[*:2]].[gGlu].[gGlu].[gGlu].[Sar].[Sar].[Sar].[Sar].[Sar].[Sar].[Sar].[Sar].[Sar].[Sar].[Sar].[Sar].[Sar].[Sar].[Sar].[O=C(CN1CCN([*:1])CC1)[*:2]].Y.F.[meL].[Nle].[Orn].P.R.G.[am]}$$$$V2.0)	1.9 nM		7.1 nM
